# Test results taken from paper PMC5467912, “Asymmetric regulation of quorum-sensing receptors drives autoinducer-specific gene expression programs in Vibrio cholerae” (PLoS Genetics, 2017).
# Where “and” joins values, the source holds several entries; their conditions need not be identical. Equal values may be shown once. Read-outs that look alike come from different tables or passages of the source.
# Tests used:
# [1] = test system: CqsS; type: cell-based; conditions: for CqsS Dimers: LuxS-CqsA-, AI-2 1 μM, CAI-1 5 μM, single replicates
# [2] = test system: CqsS C170Y; conditions: cited from earlier work
# [3] = test system: CqsS F162A; experiment: CqsS-dependent repression of qrr4-gfp, CqsS F162A (Fig 7C); type: cell-based, Vibrio cholerae; conditions: Treatment 1uM; CqsS mutant F162A
# [4] = test system: qrr4; type: cell-based
# [5] = test system: T1, WT CqsS; type: cell-based; conditions: Treatment 1uM
# T1 construct: made in house; host or cells: E. coli C43 (DE3), pET21b; used as inverted membrane vesicles
# [6] = test system: QS-controlled luxCDABE operon; type: cell-based; conditions: for RLU: PluxPQ-CqsS::3XFLAG LuxS-CqsA-
# [7] = test system: CqsS F166L; conditions: cited from earlier work
# [8] = test system: CqsS F166L; experiment: CqsS-dependent repression of qrr4-gfp, CqsS F166L (Fig 7C); type: cell-based, Vibrio cholerae
# [9] = test system: CqsS F162A; conditions: cited from earlier work
# [10] = test system: CqsS-mKATE2; experiment: Qrr4 regulation of CqsS-mKATE2 translational fusion, anhydrous tetracycline-inducible qrr4 (S4 Fig); type: cell-based, E. coli
# Source text: We examined whether Qrr regulation of CqsS is direct or indirect using a CqsS-mKATE2 translational fusion in E. coli expressing inducible qrr4. We reasoned that, if CqsS production is controlled by Qrr4, repression of CqsS-mKATE2 should occur when Qrr4 is induced. We verified that our system works by showing that inducible Qrr4 is capable of repressing a previously-identified direct target, VCA0107-GFP [24]. However, no repression of CqsS-mKATE2 occurred following induction of Qrr4 (S4 Fig).
# To assay qrr4 regulation of cqsS, the relative fluorescence of translational fusions (VCA0107B-GFP and CqsS-mKATE2) was measured in E. coli BWR1. E. coli carrying one of these plasmids also contained either an empty plasmid (pZA31) or pZA31 carrying anhydrous tetracycline-inducible qrr4. Qrr4-mediated repression of CqsS-mKATE2 was assessed. VCA0107-GFP is a known Qrr4-repressed target and was used as a positive control to show the system was functional. Overnight cultures were diluted 1:50 into fresh medium and aliquotted in triplicate into 96 well plates. […] OD600 and fluorescence were assessed using an Envision 2103 Multilabel Reader (Perkin Elmer).
# Supplementary file pgen.1006826.s008.tiff: S4 Fig Qrr4 indirectly regulates cqsS. Fluorescence from plasmid-encoded VCA0107-GFP (circles) and CqsS-mKATE2 (squares) was measured in E. coli. Either an empty vector (pZA31-lucNB, black) or pZA31-lucNB carrying tetracycline-inducible qrr4 (pYS245, red) was present in each strain. VCA0107 encodes a type VI secretion system component that is regulated by Qrr4. Data represent two experiments conducted in triplicate. Error bars represent standard errors of the mean. (TIFF) Click here for additional data file.
structure (smiles),measurement,setting,value
"CCCCCCCCCC(=O)[C@@H](O)CC [CAI-1, (S)-3-hydroxytridecan-4-one]",CqsS Dimers,[1]; HCD (OD600 = 2.0),114.596 and 64.6161 and 71.1979 and 202.196 and 256.645 and 84.2562 and 79.0603 and 97.3422
same,CqsS Dimers,[1]; LCD (OD600 = 0.2),74.4347 and 10.9291 and 11.9686 and 59.9755 and 52.7962 and 18.8946 and 26.4401 and 52.893
same,CqsS protein levels,"[1]; ΔcqsA ΔluxS mutant, LCD and HCD",increased CqsS protein levels to nearly that present in the WT
same,response of CqsS variant to CAI-1,[2],do not respond
same,Qrr4-GFP/OD600,[3],18299880 and 17516110 and 17110990
same,"RLU, average per biological replicate (Totals)","[4]; LuxS-CqsA- strain + autoinducer, Rep 1-3",2.55E+08 RLU and 2.82E+08 RLU and 3.63E+08 RLU
same,reduction of qrr4-luxCDABE expression,"[4]; saturating autoinducer, ΔcqsA ΔluxS mutant",20 fold
same,Qrr4-GFP/OD600,[5],1736969 and 1605333 and 1622571
same,RLU,[6]; OD600 0.0561,7.33E+06 RLU
same,RLU,[6]; OD600 0.3257,8.15E+05 RLU
same,RLU,[6]; OD600 1.037,1.96E+05 RLU
same,RLU,[6]; OD600 1.243,3.52E+06 RLU
same,RLU,[6]; OD600 1.958,2.58E+09 RLU
same,RLU,[6]; OD600 2.673,3.36E+09 RLU
same,QS response when cqsS is under the luxPQ promoter,[6]; S9B Fig,incapable of inducing the premature response
same,response of CqsS variant to CAI-1,[7],do not respond
same,Qrr4-GFP/OD600,"[8]; Treatment 1uM, CqsS mutant F166L",7778886 and 7289924 and 6896372
same,response (Qrr4-GFP production),[8]; compounds at 1 μM,nearly impervious
same,response of CqsS variant to CAI-1,[9],do not respond
Cc1c2c(c(O)c3c(O)cccc13)C(=O)[C@]1(O)C(=O)C(C(N)=O)=C(O)[C@@H](N(C)C)[C@@H]1C2 [aTc],"Relative reporter signal, experimental averages","[10]; pCqsS Qrr4, aTc 0.0976562 ng/ml (normalization point)",1
same,"Relative reporter signal, experimental averages","[10]; pCqsS Qrr4, aTc 0.195312 ng/ml, normalized to 0.0976562 ng/ml",0.9161 and 1.022 and 1.111
same,"Relative reporter signal, experimental averages","[10]; pCqsS Qrr4, aTc 0.390625 ng/ml, normalized to 0.0976562 ng/ml",0.9447 and 1.099 and 1.082
same,"Relative reporter signal, experimental averages","[10]; pCqsS Qrr4, aTc 0.78125 ng/ml, normalized to 0.0976562 ng/ml",0.9451 and 1.129 and 1.056
same,"Relative reporter signal, experimental averages","[10]; pCqsS Qrr4, aTc 1.5625 ng/ml, normalized to 0.0976562 ng/ml",1.068 and 1.16 and 0.9801
same,"Relative reporter signal, single replicates","[10]; pCqsS Qrr4, aTc 3.125 ng/ml",1.44 and 0.9097 and 1.127 and 0.956
same,"Relative reporter signal, experimental averages","[10]; pCqsS Qrr4, aTc 3.125 ng/ml, normalized to 0.0976562 ng/ml",1.078 and 1.159 and 0.9843
same,"Relative reporter signal, single replicates","[10]; pCqsS Qrr4, aTc 6.25 ng/ml",1.264 and 1.158 and 1.22 and 0.881 and 1.097 and 1.0668 and 1.093 and 0.9121 and 1.019
same,"Relative reporter signal, experimental averages","[10]; pCqsS Qrr4, aTc 6.25 ng/ml, normalized to 0.0976562 ng/ml",1.008 and 1.214 and 1.015
same,"Relative reporter signal, single replicates","[10]; pCqsS Qrr4, aTc 12.5 ng/ml",1.4702 and 1.295 and 1.361 and 0.8302 and 0.9914 and 0.8969 and 1.079 and 1.208 and 0.9918
same,"Relative reporter signal, experimental averages","[10]; pCqsS Qrr4, aTc 12.5 ng/ml, normalized to 0.0976562 ng/ml",1.093 and 1.376 and 0.9062
same,"Relative reporter signal, single replicates","[10]; pCqsS Qrr4, aTc 25 ng/ml",1.547 and 1.293 and 1.267 and 0.9302 and 0.911 and 0.8369 and 1.15 and 1.125 and 1.107
same,"Relative reporter signal, experimental averages","[10]; pCqsS Qrr4, aTc 25 ng/ml, normalized to 0.0976562 ng/ml",1.127 and 1.369 and 0.8927
same,"Relative reporter signal, single replicates","[10]; pCqsS Qrr4, aTc 50 ng/ml",1.539 and 1.282 and 1.3008 and 0.9601 and 0.9046 and 0.8156 and 1.287 and 1.24 and 0.9722
same,"Relative reporter signal, experimental averages","[10]; pCqsS Qrr4, aTc 50 ng/ml, normalized to 0.0976562 ng/ml",1.167 and 1.374 and 0.8934
same,"Relative reporter signal, single replicates","[10]; pCqsS Qrr4, aTc 100 ng/ml",1.525 and 1.187 and 1.2288 and 1.039 and 0.9388 and 0.8346 and 1.105 and 1.41 and 1.043
same,"Relative reporter signal, experimental averages","[10]; pCqsS Qrr4, aTc 100 ng/ml, normalized to 0.0976562 ng/ml",1.186 and 1.313 and 0.9374
same,"Relative reporter signal, single replicates","[10]; pCqsS Qrr4, aTc 200 ng/ml",1.816 and 1.134 and 1.357 and 1.246 and 1.145 and 0.8992 and 1.196 and 1.432 and 1.656
same,"Relative reporter signal, experimental averages","[10]; pCqsS Qrr4, aTc 200 ng/ml, normalized to 0.0976562 ng/ml",1.428 and 1.436 and 1.096
same,"Relative reporter signal, experimental averages","[10]; pCqsS vector, aTc 0.0976562 ng/ml (normalization point)",1
same,"Relative reporter signal, experimental averages","[10]; pCqsS vector, aTc 0.195312 ng/ml, normalized to 0.0976562 ng/ml",1.035 and 0.9136
same,"Relative reporter signal, experimental averages","[10]; pCqsS vector, aTc 0.390625 ng/ml, normalized to 0.0976562 ng/ml",1.0872 and 0.9606
same,"Relative reporter signal, experimental averages","[10]; pCqsS vector, aTc 0.78125 ng/ml, normalized to 0.0976562 ng/ml",0.9727 and 0.9156
same,"Relative reporter signal, experimental averages","[10]; pCqsS vector, aTc 1.5625 ng/ml, normalized to 0.0976562 ng/ml",1.033 and 0.9687
same,"Relative reporter signal, single replicates","[10]; pCqsS vector, aTc 3.125 ng/ml",1.095 and 1.006 and 1.033 and 1.049 and 1.037 and 0.9455
same,"Relative reporter signal, experimental averages","[10]; pCqsS vector, aTc 3.125 ng/ml, normalized to 0.0976562 ng/ml",1.045 and 1.01
same,"Relative reporter signal, single replicates","[10]; pCqsS vector, aTc 6.25 ng/ml",1.025 and 0.9971 and 1.015 and 1.078 and 0.9309 and 0.9316
same,"Relative reporter signal, experimental averages","[10]; pCqsS vector, aTc 6.25 ng/ml, normalized to 0.0976562 ng/ml",1.0121 and 0.9801
same,"Relative reporter signal, single replicates","[10]; pCqsS vector, aTc 12.5 ng/ml",1 and 0.9215 and 1.059 and 1.011 and 1.014 and 0.8976
same,"Relative reporter signal, experimental averages","[10]; pCqsS vector, aTc 12.5 ng/ml, normalized to 0.0976562 ng/ml",0.9936 and 0.9741
same,"Relative reporter signal, single replicates","[10]; pCqsS vector, aTc 25 ng/ml",0.9696 and 0.9738 and 0.9202 and 1.059 and 1.016 and 0.9126
same,"Relative reporter signal, experimental averages","[10]; pCqsS vector, aTc 25 ng/ml, normalized to 0.0976562 ng/ml",0.9545 and 0.9958
same,"Relative reporter signal, single replicates","[10]; pCqsS vector, aTc 50 ng/ml",0.9232 and 0.9361 and 1.0359 and 1.102 and 1.073 and 0.9182
same,"Relative reporter signal, experimental averages","[10]; pCqsS vector, aTc 50 ng/ml, normalized to 0.0976562 ng/ml",0.965 and 1.031
same,"Relative reporter signal, single replicates","[10]; pCqsS vector, aTc 100 ng/ml",0.9506 and 0.9792 and 0.9909 and 1.135 and 1.123 and 0.9303
same,"Relative reporter signal, experimental averages","[10]; pCqsS vector, aTc 100 ng/ml, normalized to 0.0976562 ng/ml",0.9736 and 1.063
same,"Relative reporter signal, single replicates","[10]; pCqsS vector, aTc 200 ng/ml",1.017 and 1.029 and 1.01 and 1.335 and 1.085 and 1.09
same,"Relative reporter signal, experimental averages","[10]; pCqsS vector, aTc 200 ng/ml, normalized to 0.0976562 ng/ml",1.019 and 1.17
